# Assay results as given in PMC7656518 (ACS chemical biology, 2018).
# Positions of bridges follow the written chain, without caps; N, C: chain ends. Residues, ends and D or L forms follow the SMILES beside them.
# Legend:
# [1] = target: T1, hCT(a) receptor (Homo sapiens, UniProt P30988); assay: cAMP production; format: cell-based
# T1 sequence (P30988 25-474): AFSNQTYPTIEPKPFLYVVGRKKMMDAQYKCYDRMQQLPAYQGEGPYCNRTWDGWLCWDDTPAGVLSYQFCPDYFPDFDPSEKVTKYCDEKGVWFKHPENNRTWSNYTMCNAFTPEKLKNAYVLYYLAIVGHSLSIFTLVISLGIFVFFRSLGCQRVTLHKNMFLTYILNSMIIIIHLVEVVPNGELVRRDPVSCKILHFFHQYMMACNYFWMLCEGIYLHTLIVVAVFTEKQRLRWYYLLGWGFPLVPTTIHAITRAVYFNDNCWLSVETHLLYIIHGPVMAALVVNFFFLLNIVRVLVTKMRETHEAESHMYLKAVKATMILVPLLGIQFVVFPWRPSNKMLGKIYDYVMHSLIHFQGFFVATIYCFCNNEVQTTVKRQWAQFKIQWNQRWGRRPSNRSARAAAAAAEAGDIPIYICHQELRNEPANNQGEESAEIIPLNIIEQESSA
# [2] = target: hAMY1(a) receptor (Homo sapiens, UniProt O60894+P30988); assay: cAMP production; format: cell-based
# [3] = target: hAMY2(a) receptor (Homo sapiens, UniProt O60895+P30988); assay: cAMP production; format: cell-based
# [4] = target: T2, hAMY3(a) receptor (Homo sapiens, UniProt O60896+P30988); assay: cAMP production; format: cell-based
# T2 sequence (P30988 25-474): T1 sequence (P30988 25-474)
# T2 sequence (O60896 24-148 partner): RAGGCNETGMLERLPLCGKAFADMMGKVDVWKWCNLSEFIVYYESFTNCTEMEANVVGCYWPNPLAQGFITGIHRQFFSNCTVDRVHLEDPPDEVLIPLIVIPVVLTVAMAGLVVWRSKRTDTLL
# [5] = system: hCT(a), hAMY1(a), hAMY2(a), hAMY3(a) receptors; assay: cAMP production, overall statement for the four amylin-responsive receptors; format: cell-based, human; settings: stimulation of cAMP production at hCT(a)
# [6] = Thioflavin-T fluorescence amyloid formation kinetics and TEM in PBS; format: physicochemical; settings: PBS (10 mM phosphate 140 mM KCl) pH 7.4
# [7] = Amyloid formation in presence of anionic large unilamellar vesicles; format: physicochemical; settings: LUV's 25% POPS / 75% POPC, final concentration 400 μM
# [8] = system: rat INS-1/832-13 β-cells; assay: Alamar Blue β-cell viability; settings: 30 μM peptide
# [9] = Thioflavin-T fluorescence amyloid formation kinetics and TEM in Tris buffer
# Sequence of hAMY2(a) receptor (O60895 43-175 partner, one chain of several): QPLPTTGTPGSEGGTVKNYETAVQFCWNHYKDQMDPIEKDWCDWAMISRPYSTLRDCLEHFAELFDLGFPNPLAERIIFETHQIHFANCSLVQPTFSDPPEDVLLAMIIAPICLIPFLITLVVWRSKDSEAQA
# Sequence of hAMY1(a) receptor (O60894 27-148 partner, one chain of several): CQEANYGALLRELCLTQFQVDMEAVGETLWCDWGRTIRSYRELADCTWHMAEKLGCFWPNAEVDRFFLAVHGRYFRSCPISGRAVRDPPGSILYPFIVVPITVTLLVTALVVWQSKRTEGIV
structure (smiles),measurement,setting,value
CC[C@H](C)[C@H](NC(=O)[C@H](C)NC(=O)CNC(=O)[C@H](CC(C)C)NC(=O)[C@H](CCCCN)NC(=O)[C@H](CC(N)=O)NC(=O)[C@H](CO)NC(=O)[C@H](CO)NC(=O)[C@@H]1CCCN1C(=O)[C@H](C)NC(=O)[C@H](CC(C)C)NC(=O)[C@H](Cc1ccccc1)NC(=O)[C@H](CC(N)=O)NC(=O)[C@H](C)NC(=O)[C@H](CC(C)C)NC(=O)[C@H](CCCNC(=N)N)NC(=O)[C@H](CCC(N)=O)NC(=O)[C@@H](NC(=O)[C@H](CCC(=O)O)NC(=O)[C@@H]1CSSC[C@H](NC(=O)[C@@H](N)CCCCN)C(=O)NCC(=O)N[C@@H]([C@@H](C)O)C(=O)N[C@@H](C)C(=O)N[C@@H]([C@@H](C)O)C(=O)N1)[C@@H](C)O)C(=O)N[C@@H](Cc1ccccc1)C(=O)N[C@@H](CO)C(=O)N1CCC[C@H]1C(=O)N[C@H](C(=O)N[C@@H](CCCCN)C(=O)N[C@@H](CCSC)C(=O)NCC(=O)N[C@@H](CO)C(=O)N[C@@H](CC(N)=O)C(=O)N[C@H](C(=O)N[C@@H](Cc1ccc(O)cc1)C(N)=O)[C@@H](C)O)[C@@H](C)O [b-amylin] (H-KCGTATCETQRLANFLAPSSNKLGAIFSPTKMGSNTY-NH2; disulfide 2-7; N-terminus assumed),Emax,[1]; COS-7,62.9 ± 8.25%
same,EC50,[1]; SEM,1.55 µM
same,agonist character,"[1]; hCT(a), cAMP production",partial agonist
same,Fold-change,[1]; potency of b-amylin relative to h-amylin at hCT(a),> −400
same,Emax,[2]; COS-7,83.1 ± 10.6%
same,EC50,[2]; SEM,0.912 µM
same,agonist character,"[2]; hAMY1(a), cAMP production",full agonist
same,Fold-change,[2]; potency of b-amylin relative to h-amylin at hAMY1(a),> −5000
same,Emax,[3]; COS-7,73.9 ± 4.27%
same,EC50,[3]; SEM,1.17 µM
same,Fold-change,[3]; potency of b-amylin relative to h-amylin at hAMY2(a),> −600
same,Emax,[4]; COS-7,62.4 ± 9.31%
same,EC50,[4]; SEM,1.35 µM
same,Fold-change,[4]; potency of b-amylin relative to h-amylin at hAMY3(a),> −2000
same,fold less potent than h-amylin,[5],at least 300 fold
same,amyloid fibrils by TEM,[6],no amyloid fibrils were detected
same,increase in thioflavin-T fluorescence signal,[6]; 7 days of incubation,no significant increase in thioflavin-T fluorescence signal was observed
same,amyloid formation in presence of LUV's,[7],no amyloid formation was detected
same,toxicity (in words),[8]; 24 h incubation,did not exhibit any toxicity
same,toxicity (in words),[8]; 84 h incubation,not toxic
same,increase in thioflavin-T fluorescence signal,"[9]; 16 μM peptide, 32 μM thioflavin-T, pH 7.4, 25°C, 20 mM Tris, 6 days of incubation",no increase in thioflavin-T fluorescence signal was observed
same,amyloid formation at a range of peptide concentrations,"[9]; 20 mM Tris pH 7.4, highest concentration examined 64 μM",no amyloid was detected
